According to US20190256502A1, “ORGANIC COMPOUNDS” (HOX THERAPEUTICS LIMITED, priority 2016, published 2019):
Where two headings read alike, the source gives them in different places.

What was measured:
cFOS [1] = experiment: cFOS expression in MDA-MB-231 cells (qRT-PCR); format: cell-based; settings: for fold induction at 33 µM: Homo sapiens, qRT-PCR; for fold induction at 33 µM / cFos expression compared to untreated MDA-MB-231 cells: MDA-MB-231 cells, 2h, 33 μM
Description: MDA-MB-231 cells were seeded in 25 cm^2 plates and treated for 2h with 33 μM of each compound at 80% confluence. RNA was isolated using RNeasy Mini Kit-QIAGEN according to manufacturer's instructions and quantified with NanoDrop ND-1000. cDNA was generated from 1 μg of total RNA using High Capacity cDNA Reverse Transcription Kit in a 25 μl final reaction volume according to the manufacturer protocol. The expression of cFOS was quantified by qRT-PCR. Real-time PCR reactions were performed using 1:10 dilution (5 μl/well) of each cDNA added to TaqMan Universal PCR Master Mix and TaqMan Gene Expression Assay Hs00170630_m1 FOS. Amplification of glyceraldehyde 3-phosphate dehydrogenase (GAPDH) probe was performed as endogenous control. The comparative Ct method (ΔΔCt algorithm) was used for analysis. Independent experiments were performed in triplicates and repeated three times. Statistical analysis was performed with Student's t-test.
MDA MB 231 cells were treated for 4h with 4×IC50 Example 2 in PEG/Tris HCl. RNA was isolated and RT-PCR performed to detect expression of cFOS. Data are means±SEM of four independent experiments. Significance to PEG/Tris HCl: **p<0.01 (Ttest).

MDA-MB-231 cells = experiment: MTT assay for cell killing, breast cancer cell line MDA-MB-231; format: cell-based; settings: for IC50: Homo sapiens, MDA-MB-231, MTT, 72h
Description: The cytotoxicity of the peptides on the prostate cancer derived cell lines DU145, LnCaP, and PC3, and the breast cancer derived cell line MDA-MB-231 was tested as previously described (Morgan et al. 2014 ibid), using the MTT (3-[4,5-dimethylthiazol-2-yl]-2,5-diphenyltetrazolium bromide) assay for metabolic activity. 7000-16000 cells, depending on the cell line, were seeded onto 96-well cell plate and treated with 5, 10, 20, 40 and 80 μM of each compound for 72h, DMSO alone (negative control) for 72 hr, or HTL001 ([…]; International patent application published as WO2017068353; positive control) for 2 h. After treatment, MTT at a final concentration of 0.5 mg/ml was added. Upon 4h incubation the formed formazan crystals were dissolved in DMSO and the optical density (OD) measured at 540 nm with a spectrofluorimeter. Percentage of cell survival was calculated as a ratio of the mean OD value of treated vs. untreated cells. Experiments were repeated 3 times and statistical analysis performed using Student's t-test. All cell lines were cultured in RPMI media with added 10% FBS, 1% sodium pyruvate and 1% L-Glutamine. They were all cultured in an incubator at 37° C., 5% CO2. The assay was repeated 3 times and the results are given as the mean IC50 for cell killing±standard deviation.
The molecules were tested for their ability to induce cell death using the breast cancer cell line MDA-MB-231, with the HOX/PBX interfering peptide HTL001 (WYKWMKKAARRRRRRRRR; International patent application published as WO2017068353) as a positive control and DMSO as a negative control. Percentage of cell survival was evaluated with the MTT assay after treatment with different concentrations ([…], 10, 20, 40 and 80 μM) of each compound for 72h. The IC50 was evaluated as the concentration of the compound that reduces % of cell survival by half.
MDA-MB-231 cells were treated with different concentrations of Example 2 dissolved in either DMSO or PEG/Tris HCl and MTT assay performed. Data are means±SEM of four independent experiments.

MDA-MB-231 tumour = experiment: In vivo study, MDA-MB-231 tumour in Balb-c nude mice; settings: 20 mg/Kg, IP, day 0, 3, 6, 9, 10 & 13
Description: MDA-MB-231 cells were injected subcutaneously into female or male Balb-c nude mice aged 6 to 12 weeks (Harlan, UK). When the tumour size reached 100 mm^3 mice were injected intratumouraly with Example 2 at the intervals shown on the graph. Mice were sacrificed when the tumour size reached 1000 mm^3 or at the end of the experiment (14 days).
Treatment of MDA-MB-231 tumour with Example 2 (ICT9119): Group 1—Untreated controls Group 2—10% DMSO/Oil solvent control, IP, day 0, 3, 6, 9, 10 & 13 Group 3—Example 2, 20 mg/Kg, IP, day 0, 3, 6, 9, 10 & 13

DUSP1 [2] = experiment: DUSP1 expression in PC3 prostate cancer cells (RT-PCR); format: cell-based; settings: 4h, 120 μM in PEG/Tris HCl
Description: (§1) PC3 cells were treated for 4h with 120 μM Example 2 in PEG/Tris HCl. RNA was isolated and RT-PCR performed to detect expression of cFOS and DUSP1. Data are means±SEM of three independent experiments. Significance to PEG/Tris HCl: **p<0.01, ***p<0.001 (Ttest).

DUSP1 [3] = experiment: DUSP1 expression in DU145 prostate cancer cells (RT-PCR); format: cell-based; settings: 4h, 120 μM in PEG/Tris HCl
Description: (§2) DU145 cells were treated for 4h with 120 μM Example 2 in PEG/Tris HCl. RNA was isolated and RT-PCR performed to detect expression of cFOS and DUSP1. Data are means±SEM of three independent experiments. *p<0.05 (Ttest).

cFOS [4] = experiment: cFOS expression in PC3 prostate cancer cells (RT-PCR); format: cell-based; settings: 4h, 120 μM in PEG/Tris HCl
Description: as §1

Solubility studies = format: physicochemical
Excerpt: Example 2 was solubilised in PEG400 and propylene glycol (PG).

cFOS [5] = experiment: cFOS expression in DU145 prostate cancer cells (RT-PCR); format: cell-based; settings: 4h, 120 μM in PEG/Tris HCl
Description: as §2

HOXB4/PBX2 dimers = target: T1, HOXB4/PBX2 dimers (Homo sapiens, UniProt P40425); experiment: Cell based ELISA assay for HOX/PBX binding (HOXB4/PBX2 dimer assay); settings: MDA-MB-231 cells treated with 10 μM for 4 hours; compared to negative control (DMSO); read-out: % inhibition of HOXB4/PBX2 dimer formation
T1 construct: endogenous in cells; host or cells: MDA-MB-231
T1 sequence (P40425 1-430): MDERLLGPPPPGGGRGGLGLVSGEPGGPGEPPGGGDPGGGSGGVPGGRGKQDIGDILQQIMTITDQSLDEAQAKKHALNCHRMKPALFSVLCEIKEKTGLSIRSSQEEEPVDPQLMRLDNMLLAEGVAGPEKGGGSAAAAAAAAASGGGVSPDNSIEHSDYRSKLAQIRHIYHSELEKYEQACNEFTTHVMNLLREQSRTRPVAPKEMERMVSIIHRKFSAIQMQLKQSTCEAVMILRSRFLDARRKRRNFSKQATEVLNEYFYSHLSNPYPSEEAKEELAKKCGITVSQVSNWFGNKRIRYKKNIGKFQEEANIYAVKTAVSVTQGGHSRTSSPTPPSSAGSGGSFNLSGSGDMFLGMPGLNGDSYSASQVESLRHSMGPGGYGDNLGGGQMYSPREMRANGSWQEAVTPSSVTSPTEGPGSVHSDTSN
Description: In order to directly assess the ability of each compound to disrupt HOX/PBX binding a cell-based assay system was developed that could allow the formation of HOX/PBX/DNA dimers. Cultured MDA-MB-231 cells were treated with 10 μM of each compound for 4 hours and then used to generate a cell lysate using a standard preparation method as described below. HOXB4/PBX2 dimers were then measured using an ELISA-based system as detailed in the table below. The values from this assay are expressed as % inhibition of dimer formation compared to a negative control (DMSO).
1. Collect approximately 5.0×10^7 cells by low-speed centrifugation at RT for 5 min. Carefully remove culture medium. 2. Wash the cellular debris (pellet) with PBS at RT, and collect by low-speed centrifugation. Carefully remove supernatant (total protein). 3. Add 1.0 ml of pre-cold RIPA buffer (or other appropriate buffer) with freshly added (Protease Inhibitors) and/or (Phosphatase Inhibitors). Gently resuspend cells in RIPA buffer with a pipet and incubate on ice for 30 min. 4. Further disrupt and homogenize cells by passing through a 21-gauge needle, dounce homogenization or sonication, taking care not to raise the temperature of the lysate. (Optional: Add 10 μl of 10 mg/ml PMSF stock) Incubate 30 min on ice. 5. Transfer to microcentrifuge tube(s) and centrifuge at 10,000×g for 10 min at 4° C. […]

[6] = average of experiments, read-out: IC50 Average
[7] = single experiment 1, read-out: IC50 Exp1
[8] = single experiment 2, read-out: IC50 Exp2
[9] = MDA-MB-231 tumour in Balb-c nude mice
[10] = single experiment 3, read-out: IC50 Exp3
[11] = no induced cell death observed at 80 μM, read-out: IC50 values for the urea analogue reference examples
[12] = single experiment 4, read-out: IC50 Exp4

Compound | IC50 (MDA-MB-231 cells; [6]) [µM] | IC50 (MDA-MB-231 cells; [7]) [µM] | IC50 (MDA-MB-231 cells; [8]) [µM] | IC50 (MDA-MB-231 cells; [10]) [µM] | IC50 (MDA-MB-231 cells; [11]) [µM] | other results
CCCCCCCNC(=S)NCC(c1cccs1)c1c[nH]c2ccccc12 (stereo not shown) [Example 1, 1-heptyl-3-[2-(1H-indol-3-yl)-2-(2-thienyl)ethyl]thiourea] | 33 | 21.8 | 44.3 |  |  | fold induction at 33 µM (cFOS [1]): 32.5; cFos expression compared to untreated MDA-MB-231 cells (cFOS [1]): significant increase
CCCCCCNC(=S)NCC(c1cccs1)c1c[nH]c2ccccc12 (stereo not shown) [Example 2, 1-hexyl-3-[2-(1H-indol-3-yl)-2-(2-thienyl)ethyl]thiourea] | 37.9 | 36.7 | 39 |  |  | Maximum % weight loss (MDA-MB-231 tumour; Balb-c nude mice): 0%; Growth delay (MDA-MB-231 tumour; [9]): 4.2 days; Median time RTV 2 (MDA-MB-231 tumour; [9]): 8.9 days; cFOS expression in MDA-MB-231 cells (cFOS [1]; 4h, 4×IC50, in PEG/Tris HCl, p<0.01 to PEG/Tris HCl): significantly increased; DUSP1 expression in PC3 cells (DUSP1 [2]): significantly increased; DUSP1 expression in DU145 cells (DUSP1 [3]): significantly increased; cFOS expression in PC3 cells (cFOS [4]): significantly increased; behaviour on dilution with water (Solubility studies; diluted with water with polysorbate 80 (Tween 80) at a final concentration of 5%): remained in solution; concentration achieved in propylene glycol (PG) (Solubility studies; solubilised in PG): up to 5 mg/mL; MDA-MB-231 cell survival, in PEG/Tris HCl in comparison with in DMSO (MDA-MB-231 cells; MTT assay, four independent experiments, p<0.05): significantly decreased; cFOS expression in DU145 cells (cFOS [5]): significantly increased
C=C(C)CNC(=S)NCC(c1cccs1)c1c[nH]c2ccccc12 (stereo not shown) [Example 5] | 45.5 | 47.9 | 45 | 43.7 |  | fold induction at 33 µM (cFOS [1]): 37.4; cFos expression compared to untreated MDA-MB-231 cells (cFOS [1]): significant increase; inhibition at 10 µM (HOXB4/PBX2 dimers): 39.2%
C=C(C)CNC(=O)NCC(c1ccsc1)c1c[nH]c2ccccc12 (stereo not shown) [D, reference compound] |  |  |  |  | > 80 | 
CCCNC(=S)NCC(c1cccs1)c1c[nH]c2ccccc12 (stereo not shown) [Example 8] | 51.9 | 42.7 | 48.6 | 56.1 |  | IC50 (MDA-MB-231 cells; [12]): 59.9 µM
CNC(=S)NCC(c1cccs1)c1c[nH]c2ccccc12 (stereo not shown) [Example 6] | 61.6 | 68 | 48 | 68.9 |  | 
CCNC(=S)NCC(c1cccs1)c1c[nH]c2ccccc12 (stereo not shown) [Example 7] | 60.9 | 51.8 | 65.8 | 65 |  | 
O=C(NCC1CC1)NCC(c1cccs1)c1c[nH]c2ccccc12 (stereo not shown) [B, reference compound] |  |  |  |  | > 80 | 
CCCNC(=O)NCC(c1ccsc1)c1c[nH]c2ccccc12 (stereo not shown) [C, reference compound] |  |  |  |  | > 80 | 
S=C(NCC1CCCCC1)NCC(c1cccs1)c1c[nH]c2ccccc12 (stereo not shown) [Example 4, 1-cyclohexylmethyl-3-[2-(1H-indol-3-yl)-2-(2-thienyl)ethyl]thiourea] | 53 | 65.8 | 40.3 |  |  | 
CCCCCNC(=S)NCC(c1cccs1)c1c[nH]c2ccccc12 (stereo not shown) [Example 3, 1-pentyl-3-[2-(1H-indol-3-yl)-2-(2-thienyl)ethyl]thiourea] | 35.3 | 21.3 | 49.2 |  |  | 
C#CCNC(=O)NCC(c1cccs1)c1c[nH]c2ccccc12 (stereo not shown) [A, reference compound] |  |  |  |  | > 80 | 
CCCCNC(=S)NCC(c1cccs1)c1c[nH]c2ccccc12 (stereo not shown) [Example 9] | 41.2 | 40.9 | 37.3 | 29.8 |  | IC50 (MDA-MB-231 cells; [12]): 41 µM; IC50 (MDA-MB-231 cells; single experiment 5, read-out: IC50 Exp5): 57.2 µM
